Key:
[1] = biological target: T1, EGFR T790M/L858R (Homo sapiens, UniProt P00533, L858R/T790M); assay: Mutant EGFR T790M/L858R activity inhibition assay (Caliper mobility shift); type: biochemical; conditions: read-out: enzyme activity inhibition (IC50) EGFR T790M/L858R
T1 construct: purchased Invitrogen PR8911A
Procedure: The assay procedure is as follows. […] 5 μl of the compound dissolved in 10% DMSO at a concentration of 5-fold of the final reaction concentration was added to a 384 well plate. 5 μl of 10% DMSO was used in a no-compound control well, while 5 μl of a kinase buffer was used in a no-enzyme activity control well. […] The conversion rate was read on Caliper EZ Reader II (Caliper Life Sciences). The conversion rate was then converted to inhibitory rate.
As used herein, “max” refers to the conversion rate of the DMSO no-compound control well, and “min” refers to the conversion rate of the no-enzyme activity control well. A curve was obtained by plotting the inhibitory rate as a function of the compound concentration. The XLFit excel add-in version 4.3.1 software was used to fit the curve and calculate the IC50. Inhibitory rate %=(max−conversion rate)/(max−min)×100.

[2] = tested on: H1975; assay: Inhibition assay on tumor cell proliferation (CellTiter-Glo), H1975; type: cell-based, Human; conditions: Homo sapiens, NCI-H1975; H1975 (L858R and T790M EGFR double mutation), 72 hours, 10% bovine serum
[3] = tested on: H358; assay: Inhibition assay on tumor cell proliferation (CellTiter-Glo), H358; type: cell-based, Human; conditions: Homo sapiens, NCI-H358; H358 (wild-type EGFR), 72 hours, 10% bovine serum
Procedure: By using a CellTiter-Glo luminescence cell viability test kit (Promega, # G7572), the content of adenosine triphosphate (ATP) was determined to assess the cell viability.
Human colon cancer cell line LOVO and human non-small-cell lung cancer H358 express wild-type EGFR. Human non-small-cell lung cancer cell line HCC827 carries deletion mutation in exon 19 (ex19del). Those cell lines are purchased from Shanghai Fudan IBS Cell Resource Center and American Tissue Culture Collection (ATCC).
The assay procedure is as follows. The cells in a cell culture plate were digested with a pancreatic enzyme, re-suspended in a DPBS culture medium, and had the cell density counted by Scepter automated cytometer (Millipore # PHCC00000). The cells were diluted to a solution of 44,000 cells per ml. The cell solution with adjusted density was added to the cell assay plate at 90 microliters per well. The plate was placed in an incubator with 5% CO2 at 37° C. for 24 hours of incubation, and then added with different concentrations of subject compounds. The cells were incubated for 72 hours with the compounds in presence of 10% bovine serum. The content of ATP was determined by a CellTiter-Glo® Luminescent Cell Viability Assay kit (see the manufacturer's instruction for details) to evaluate cell-growth inhibition.
Briefly, 30 μl of CellTiter-Glo® reagent was added to each well, and then shaken for 10 minutes to induce cell lysis. The fluorescent signal was detected and recorded by Fluoroskan Ascent FL (Thermo). The max signal value was obtained from the cells treated by dimethyl sulfoxide for 72 hours. The min signal value was obtained from the medium alone (the number of the cells was 0). Inhibitory rate %=(max signal value−compound signal value)/(max signal value−min signal value)×100. The data was processed by GraphPad Prism V5.0 software (GraphPad Software, San Diego, Calif.). Sigmoidal dose-response curve fitting was performed to calculate the IC50 value.

T1 sequence (P00533 25-1210 T790M/L858R): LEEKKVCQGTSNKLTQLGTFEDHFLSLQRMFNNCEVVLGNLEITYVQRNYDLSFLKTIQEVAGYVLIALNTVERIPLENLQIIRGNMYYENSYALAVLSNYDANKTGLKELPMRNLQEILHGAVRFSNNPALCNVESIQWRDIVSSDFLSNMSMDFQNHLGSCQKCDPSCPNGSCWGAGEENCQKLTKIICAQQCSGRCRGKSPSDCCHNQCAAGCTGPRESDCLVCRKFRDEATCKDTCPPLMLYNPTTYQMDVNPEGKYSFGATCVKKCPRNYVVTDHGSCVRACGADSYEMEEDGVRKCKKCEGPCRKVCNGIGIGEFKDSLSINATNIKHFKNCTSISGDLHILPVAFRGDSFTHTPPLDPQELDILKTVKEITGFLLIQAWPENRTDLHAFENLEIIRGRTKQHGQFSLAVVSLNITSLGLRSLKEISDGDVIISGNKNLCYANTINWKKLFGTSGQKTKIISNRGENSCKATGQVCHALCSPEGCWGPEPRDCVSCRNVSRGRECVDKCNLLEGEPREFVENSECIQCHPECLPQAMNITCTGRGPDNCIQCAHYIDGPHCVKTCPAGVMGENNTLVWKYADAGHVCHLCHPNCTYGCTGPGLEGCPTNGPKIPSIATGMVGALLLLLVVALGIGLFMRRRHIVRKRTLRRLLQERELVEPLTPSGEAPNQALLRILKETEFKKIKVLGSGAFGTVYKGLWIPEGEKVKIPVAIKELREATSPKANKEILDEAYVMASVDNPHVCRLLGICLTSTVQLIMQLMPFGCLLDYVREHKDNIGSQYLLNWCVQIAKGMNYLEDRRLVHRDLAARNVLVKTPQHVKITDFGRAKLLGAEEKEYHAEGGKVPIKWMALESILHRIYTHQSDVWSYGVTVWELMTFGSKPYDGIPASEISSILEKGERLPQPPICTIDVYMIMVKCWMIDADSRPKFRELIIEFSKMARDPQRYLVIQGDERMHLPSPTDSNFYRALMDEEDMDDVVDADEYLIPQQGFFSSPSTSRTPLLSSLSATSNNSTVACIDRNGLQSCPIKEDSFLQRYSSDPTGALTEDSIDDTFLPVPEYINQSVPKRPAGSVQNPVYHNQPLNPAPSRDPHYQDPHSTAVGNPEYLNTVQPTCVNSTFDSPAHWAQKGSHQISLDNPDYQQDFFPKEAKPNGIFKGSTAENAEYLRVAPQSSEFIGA

Row | SMILES | IC50 [1] [µM] | melting point [°C] | IC50 [2] [µM] | IC50 [3] [µM]
1 | C=CC(=O)Nc1cc(Nc2ncc(NC)c(-n3ccc4ccccc43)n2)c(OC)cc1N(C)CCN(C)C [Compound 11, N-(5-(4-(1H-indol-1-yl)-5-(methylamino)pyrimidin-2-ylamino)-2-((2-(dimethylamino)ethyl)(methyl)amino)-4-methoxyphenyl)acrylamide] | 0.001 to 0.01 | 154 to 156 |  | 
2 | C=CC(=O)Nc1cc(Nc2nccc(-n3ccc4cc(Cl)ccc43)n2)c(OC)cc1N(C)CCN(C)C [Compound 31, N-(5-((4-(5-chloro-1H-indol-1-yl)pyrimidin-2-yl)amino)-2-((2-(dimethylamino)ethyl)(methyl)amino)-4-methoxyphenyl)acrylamide] | < 0.001 | 150 to 153 | < 0.01 | > 1
3 | C=CC(=O)Nc1cc(Nc2nccc(-n3c(=O)n(CC4CC4)c4ccccc43)n2)c(OC)cc1N(C)CCN(C)C [Compound 63, N-(5-((4-(3-(cyclopropylmethyl)-2-oxo-2,3-dihydro-1H-benzo[d]imidazol-1-yl)pyrimidin-2-yl)amino)-2-((2-(dimethylamino)ethyl)(methyl)amino)-4-methoxyphenyl)acrylamide] | < 0.001 | 68 to 72 | < 0.01 | > 1
4 | C/C=C/C(=O)Nc1cc(Nc2nccc(-n3ccc4ccccc43)n2)c(OC)cc1N(C)CCN(C)C [Compound 66, (E)-N-(5-((4-(1H-indol-1-yl)pyrimidin-2-yl)amino)-2-((2-(dimethylamino)ethyl)(methyl)amino)-4-methoxyphenyl)but-2-enamide] | 0.01 to 0.05 | 150.2 to 152.8 |  | 
5 | CC/C=C/C(=O)Nc1cc(Nc2nccc(-n3ccc4ccccc43)n2)c(OC)cc1N(C)CCN(C)C [Compound 67, (E)-N-(5-((4-(1H-indol-1-yl)pyrimidin-2-yl)amino)-2-((2-(dimethylamino)ethyl)(methyl)amino)-4-methoxyphenyl)pent-2-enamide] | 0.05 to 0.1 | 124.3 to 126.2 |  | 
6 | C=C(C)C(=O)Nc1cc(Nc2nccc(-n3ccc4ccccc43)n2)c(OC)cc1N(C)CCN(C)C [Compound 68, N-(5-((4-(1H-indol-1-yl)pyrimidin-2-yl)amino)-2-((2-(dimethylamino)ethyl)(methyl)amino)-4-methoxyphenyl)methacryl amide] | 0.01 to 0.05 | 145.7 to 147.1 |  | 
7 | COC/C=C/C(=O)Nc1cc(Nc2nccc(-n3ccc4ccccc43)n2)c(OC)cc1N(C)CCN(C)C [Compound 71] | 0.001 to 0.01 |  |  | 
8 | CCC#CC(=O)Nc1cc(Nc2nccc(-n3ccc4ccccc43)n2)c(OC)cc1N(C)CCN(C)C [Compound 74, N-(5-((4-(1H-indol-1-yl)pyrimidin-2-yl)amino)-2-((2-(dimethylamino)ethyl)(methyl)amino)-4-methoxyphenyl)pent-2-ynamide] | 0.001 to 0.01 | 149.4 to 151.7 |  | 

Continued, values first:

Row | IC50 [1] [µM] | melting point [°C] | IC50 [2] [µM] | IC50 [3] [µM] | SMILES
9 | 0.001 to 0.01 | 131 to 136 |  |  | C=CC(=O)Nc1cc(Nc2nccc(-n3ccc4ccccc43)n2)c(OC)cc1N(C)CCN1CCCCC1 [Compound 81, N-(5-(4-(1H-indol-1-yl)pyrimidin-2-ylamino)-4-methoxy-2-(methyl(2-(piperidin-1-yl)ethyl)amino)phenyl)acrylamide]
10 | 0.001 to 0.01 |  | 0.05 to 0.1 | > 1 | C=CC(=O)Nc1cc(Nc2nccc(-n3ccc4ccccc43)n2)c(OC)cc1N(C)CCN1CCOCC1 [Compound 82, N-{5-(4-indol-1-yl-pyrimidin-2-ylamino)-4-methoxy-2-[methyl-(2-morpholin-4-yl-ethyl)-amino]-phenyl}-acryl amide]
11 | 0.01 to 0.05 | 204 to 205 |  |  | C=CC(=O)Nc1cc(Nc2nccc(-n3ccc4ccccc43)n2)c(OC)cc1N1CCN(C)CC1 [Compound 84, N-(5-((4-(1H-indol-1-yl)pyrimidin-2-yl)amino)-4-methoxy-2-(4-methylpiperazin-1-yl)phenyl)acrylamide]
12 | < 0.001 | 181 to 184 | < 0.01 | 0.1 to 1 | C=CC(=O)Nc1cc(Nc2nccc(-n3c(=O)n(C4CC4)c4cc(F)ccc43)n2)c(OC)cc1N(C)CCN(C)C [Compound 98, N-(5-(4-(3-cyclopropyl-5-fluoro-2-oxo-2,3-dihydrobenzo[d]imidazol-1-yl)pyrimidin-2-ylamino)-2-((2-(dimethylamino)ethyl)(methyl)amino)-4-methoxyphenyl)acrylamide]
13 | 0.001 to 0.01 | 124 to 126 | < 0.01 | 0.1 to 1 | C=CC(=O)Nc1cc(Nc2nccc(-n3c(=O)n(C4CC4)c4cc(Cl)ccc43)n2)c(OC)cc1N(C)CCN(C)C [Compound 99, N-(5-((4-(5-chloro-3-cyclopropyl-2-oxo-2,3-dihydro-1H-benzo[d]imidazol-1-yl)pyrimidin-2-yl)amino)-2-((2-(dimethylamino)ethyl)(methyl)amino)-4-methoxyphenyl)acrylamide]
14 | < 0.001 | 177 to 179 | < 0.01 | 0.1 to 1 | C=CC(=O)Nc1cc(Nc2nccc(-n3c(=O)n(C4CC4)c4cc(C#N)ccc43)n2)c(OC)cc1N(C)CCN(C)C [Compound 101, N-(5-((4-(5-cyano-3-cyclopropyl-2-oxo-2,3-dihydro-1H-benzo[d]imidazol-1-yl)pyrimidin-2-yl)amino)-2-((2-(dimethylamino)ethyl)(methyl)amino)-4-methoxyphenyl)acrylamide]
15 | < 0.001 | 144 to 146 | < 0.01 | 0.1 to 1 | C=CC(=O)Nc1cc(Nc2nccc(-n3c(=O)n(C4CC4)c4cc(OC)ccc43)n2)c(OC)cc1N(C)CCN(C)C [Compound 102, N-(5-((4-(3-cyclopropyl-5-methoxy-2-oxo-2,3-dihydro-1H-benzo[d]imidazol-1-yl)pyrimidin-2-yl)amino)-2-((2-(dimethylamino)ethyl)(methyl)amino)-4-methoxyphenyl)acrylamide]
16 | < 0.001 |  | < 0.01 | 0.1 to 1 | C=CC(=O)Nc1cc(Nc2nccc(-n3c(=O)n(CC4CC4)c4cc(F)ccc43)n2)c(OC)cc1N(C)CCN(C)C [Compound 105, N-(5-(4-(3-(cyclopropylmethyl)-5-fluoro-2-oxo-2,3-dihydro-1H-benzo[d]imidazol-1-yl)pyrimidin-2-ylamino)-2-((2-(dimethylamino)ethyl)(methyl)amino)-4-methoxyphenyl)acrylamide]
17 | 0.001 to 0.01 | 71 to 78 |  |  | C=CC(=O)Nc1cc(Nc2nccc(-n3c(=O)n(C)c4ccccc43)n2)c(OCCOC)cc1N(C)CCN(C)C [Compound 120, N-{2-[(2-dimethylamino-ethyl)-methyl-amino]-4-(2-methoxy-ethoxy)-5-[4-(3-methyl-2-oxo-2,3-dihydro-benzoimidazol-1-yl)-pyrimidin-2-ylamino]-phenyl}-acrylamide]
18 | 0.001 to 0.01 |  | < 0.01 | > 1 | C=CC(=O)Nc1cc(Nc2nccc(-n3c(=O)n(C)c4ccccc43)n2)c(C(C)C)cc1N(C)CCN(C)C [Compound 132, N-(2-((2-(dimethylamino)ethyl)(methyl)amino)-4-isopropyl-5-((4-(3-methyl-2-oxo-2,3-dihydro-1H-benzo[d]imidazol-1-yl)pyrimidin-2-yl)amino)phenyl)acrylamide]

Source: patent US11267802B2 (BEBETTER MED INC., priority 2015, dated 2022)
